Columns and labels:
rBT474 xenografts = experiment: rBT474 mammary fat pad xenograft; conditions: 100 mg/kg each drug, twice daily by oral gavage
Experimental: (§1) Forty-eight hours after siRNA transfection, cells were treated with 1 μM lapatinib for 48 hours, and cells were harvested and subjected to Annexin V staining. The percentage of Annexin V-positive cells was analyzed by FACS. Results are expressed as a mean percentage±SEM and analyzed by t-test (*P<0.05). […] The oral administration of lapatinib (100 mg/kg, twice daily by oral gavage) began when the average tumor volume surpassed 300 mm^3. Results are expressed as a mean percentage±SEM. […] After 36 hours, cells were harvested and immunoblotted. […] BT474 and rBT474 cells were injected into the mammary fad pad of each mouse. When tumors developed to a size of 200 mm^3, the mice were randomly assigned to receive vehicle, lapatinib (100 mg/kg), Nutlin-3 (100 mg/kg), or Lapatinib+Nutlin-3 and treated twice daily by oral gavage. Results are expressed as a mean percentage±SEM. […] Percentage of apoptotic cell death was measured by FACS analysis using Annexin V. Results are expressed as a mean percentage±SEM of Annexin V-positive cells (*P<0.05 by t-test).
(§2) Six week-old female nude mice were purchased from NCI Frederic. Xenograft tumors were produced by injection into the mammary fat pad with cells (10×10^6). Tumor volumes were calculated every 3-4 days based on caliper measurements of the short (a) and long (b) tumor diameters (volume=a2b/2). […]

AU565-derived tumor = experiment: AU565 mammary fat pad xenograft; format: in vivo, mouse; conditions: 100 mg/kg each drug, twice daily by oral gavage
Experimental: (§3) Six week-old female nude mice were purchased from NCI Frederic. Xenograft tumors were produced by injection into the mammary fat pad with cells (10×10^6). Tumor volumes were calculated every 3-4 days based on caliper measurements of the short (a) and long (b) tumor diameters (volume=a2b/2). […] Mice were dosed orally with vehicle alone, lapatinib (100 mg/kg), Nutlin-3 (100 mg/kg), or combination of both twice daily by gavage.

BT474 xenografts = experiment: BT474 mammary fat pad xenograft; conditions: 100 mg/kg each drug, twice daily by oral gavage
Experimental: as §1, §2

rAU565-derived tumor = experiment: rAU565 mammary fat pad xenograft; conditions: 100 mg/kg each drug, twice daily by oral gavage
Experimental: as §3

Mcl-1 [1] = experiment: Immunoblot of Mcl-1 protein levels; format: cell-based; conditions: rSKBR3 cells, 1 μM lapatinib, 10 μM Nutlin-3a, 36 hours, z-VAD
Experimental: FIG. 3 is a set of photographs showing that Mcl-1 is stabilized in lapatinib-resistant cells. […] FIG. 3B is a set of immunoblots showing the levels of HER2 and phospho-HER2 in untreated cells and cells treated with lapatinib. Cells were treated with or without lapatinib (1 μM) for 24 hours in the presence of the caspase inhibitor z-VAD (50 μM). The cells were harvested and cell lysates were immunoblotted using antibodies against phospho-HER2 (Y877) and total HER2. FIG. 3C is an immunoblot for phospho-AKT (T308) and total AKT. BT474 and rBT474 cells were treated with 1 μM lapatinib in the presence of 50 μM z-VAD. At the indicated time points, the cells were harvested and immunoblotted. FIG. 3D is an immunoblot for phospho-Erl1/2(T202/Y204) and total Erk1/2. BT474 and rBT474 cells were treated with 1 μM lapatinib in the presence of 50 μM z-VAD. At the indicated time points, the cells were harvested and immunoblotted. FIG. 3E is an immunoblot for Mcl-1, Bim, and Actin. BT474 and rBT474 cells (left) or SKBR3 and rSKBR3 cells (right) were treated with 1 μM lapatinib. The cells were harvested at the indicated time points and immunoblotted. FIG. 3F is an autoradiograph showing the ^35[S] radioactivity in lysates containing ^35[S]-Mcl-1 at the indicated time points. ^35[S]-labeled Mcl-1 protein was incubated in cell-free lysates prepared from BT474 and rBT474 cells (top) or SKBR3 and rSKBR3 cells (bottom). FIG. 3G is an autograph showing the ^35[S]-labeled Mcl-1 to monitor Mcl-1 stability over time. The ^35[S]-labeled Mcl-1 was incubated in lysates prepared from rBT474 cells treated with or without 1 μM lapatinib. FIG. 3H is an immunoblot for HA. SKBR3 or rSKBR3 cells were co-transfected with FLAG-Mcl-1 and HA-Ubiquitin (Ub). […] Cells were harvested after treatment with 10 μM MG 132 for 4 hours. FLAG-Mcl-1 was retrieved by immunoprecipitation using anti-flag agarose, and Mcl-1 ubiquitylation was analyzed by immunoblotting for HA (*non-specific band, **IgG heavy chain).

PP5 = experiment: Immunoblot of PP5 protein levels; format: cell-based; conditions: rSKBR3 cells, 1 μM lapatinib, 10 μM Nutlin-3a, 36 hours, z-VAD
Experimental: FIG. 7 is a set of photographs and graphs showing PP5 stability and post-cytochrome c protection in lapatinib-resistant cells. FIG. 7A is an immunoblot for caspase-9 (cleaved and non-cleaved) and cleaved caspase-3 (C9 and C3, respectively) showing rBT474 cells cultured in the absence or presence of 1 μM lapatinib for one week, as compared to BT474 cells which were maintained without lapatinib. Cytosolic lysates prepared from BT474 or rBT474 were incubated with 1 mM dATP and various amounts of cytochrome c (CC). FIG. 7B is a set of graphs showing Caspase 3 activity in the indicated cell lysates over time. Caspase-3 activity was assayed by measuring cleavage of DEVD-pNA following incubation of the cell lysates with 1 mM dATP and various concentrations of cytochrome c. FIG. 7C is an autoradiograph of ^32P and an immunoblot showing the percentage of the protein phosphorylated. In the presence of [γ-^32P]ATP, recombinant His-tagged HSP90β proteins (wild type and the indicated mutants) on nickel beads were incubated with the HSP90β-targeted kinase casein kinase 2. FIG. 7D is an autoradiograph and corresponding immunoblot showing BT474 or rBT474 cells after being cultured in the absence or presence of 1 μM lapatinib for 24 hours in the presence of z-VAD. Recombinant His-tagged HSP90β protein on nickel beads was incubated with the cell lysates in the presence of [γ-^32P]ATP. FIG. 7E is an immunoblot for phospho-Hsp90β (Ser226) and total HSP90β at various time points. […] FIG. 7F is a set of graphs showing FACS analysis for the phosphorylation status of Hsp90β (Ser255). BT474 or rBT474 cells cultured in the presence of 1 μM lapatinib for 24 hours were fixed with formaldehyde and incubated with phospho-Hsp90β (Ser255) antibody followed by an Alexa488-conjugated secondary antibody. FIG. 7G is an immunoblot for PP5 and actin at the indicated time points. BT474 and rBT474 (left) or AU565 and rAU565 cells (right) were treated with 1 μM lapatinib. FIG. 7H is an autoradiograph of immunoprecipitated FLAG-PP5 using an anti-FLAG agarose. […]

Huwe1 = experiment: Immunoblot of Huwe1 protein levels and stability; format: cell-based; conditions: rSKBR3 cells, 1 μM lapatinib, 10 μM Nutlin-3a, 36 hours, z-VAD
Experimental: FIG. 13 is a set of immunoblots showing MDM2-mediated ubiquitylation and degradation of Huwe1 in lapatinib-resistant cells. […] Cells treated with 1 μM lapatinib were harvested at various time points and immunoblotted. […] FIG. 13B is an immunoblot for HA and actin. BT474 and rBT474 cells were transiently transfected with HA-tagged Huwe1 and subsequently treated with 50 μg/ml cycloheximide (CHX) and 1 μM lapatinib. FIG. 13C is an immunoblot for Huwe1 and MDM2. Immunoprecipitation was carried out using H1299 cell lysates and anti-Huwe1 antibody (or control IgG). FIG. 13D is an immunoblot for HA or MDM2 after immunoprecipitation with HA. BT474 cells were transfected with HA-tagged Huwe1 encoding the full-length protein, residues 1-2474, or residues 2473-4374. […] H1299 cells were transfected with empty vector, HA-Huwe1^W1202A, or HA-Huwe1 wild type. FIG. 13F is an immunoblot for Huwe1 and Actin. BT474 cells were transfected with increasing amounts of MDM2 and harvested after 48 hours. FIG. 13G is an immunoblot for Huwe1, MDM2, and actin. […] FIG. 13H is an immunoblot for Huwe1. Ubiquitylation of Huwe1 was reconstituted in vitro by incubating recombinant Huwe1 protein (Huwe1^1-2474) with E1, UbcH5 (E2), ubiquitin (Ub), and recombinant MDM2 protein in reaction buffer at 37° C. for 3 hours. […] Twenty-four hours later, the cells were replated and further transfected with HA-tagged Huwe1 (wild type). Forty-eight hours after siRNA transfection, the cells were treated with 1 μM lapatinib. After 24 hours of lapatinib treatment, 50 μg/ml cycloheximide (CHX) was added to the culture medium and cells were harvested at various time points for immunoblotting.

CAS = experiment: Immunoblot of CAS protein levels; format: cell-based; conditions: rSKBR3 cells, 1 μM lapatinib, 10 μM Nutlin-3a, 36 hours, z-VAD
Experimental: FIG. 11 is a set of photographs of immunoblots showing CAS degradation in lapatinib-resistant cells. FIG. 11A is an immunoblot for CAS and Actin. BT474 and rBT474 (left) or AU565 and rAU565 cells (right) cultured in the absence of lapatinib for one week were treated with 1 μM lapatinib and the cells were harvested at various time points. FIG. 11B is an immmunoblot for CAS and Actin. rBT474 cells were maintained in the presence of […] lapatinib and the cells were harvested at various time points following removal of lapatinib. FIG. 11C is an immunoblot for FLAG and actin. BT474 and rBT474 cells were transiently transfected with FLAG-tagged CAS and subsequently treated with 50 μg/ml cycloheximide (CHX) and 1 μM lapatinib and the cells were harvested at various time points. FIG. 11D is an immunoblot using HA to analyze ubiquitination of CAS. BT474 and rBT474 (left) or SKBR3 and rSKBR3 cells (right) were co-transfected with FLAG-CAS and HA-Ub. […] After treatment with 10 μM MG 132 for 8 hours, cells were harvested and FLAG-CAS was retrieved by immunoprecipitation. FIG. 11E is an immunoblot for FLAG-tagged proteins retrieved by immunoprecipitation and association with MDM2. H1299 cells were transfected with empty vector, FLAG-CAS^W127A, or FLAG-CAS wild type. FIG. 11F is an immunoblot for CAs after immunoprecipitation for FLAG. H1299 cells were transfected with empty vector, FLAG-CAS^W127A, or FLAG-CAS wild type. Cells were treated with 10 μM MG132 for 3 hours. […] SKBR3 cells were transfected with increasing amounts of MDM2. After 48 hours, cells were harvested and immunoblotted (*non-specific band). FIG. 11H is an immunoblot for CAS. […] FIG. 11I is an immunoblot for MDM2 or CAs after immunoprecipitation with FLAG. BT474 and rBT474 cells were transfected with FLAG-CAS. […] After treatment with 10 μM MG132 for 5 hours, FLAG-CAS was retrieved by immunoprecipitation and association of endogenous MDM2 was analyzed by immunoblotting.

Mcl-1 [2] = experiment: 35[S]-Mcl-1 degradation in cell-free lysates; format: cell-based; conditions: resistant cell lysates, 5 μM ubiquitin aldehyde
Experimental: FIG. 3 is a set of photographs showing that Mcl-1 is stabilized in lapatinib-resistant cells. […] FIG. 3B is a set of immunoblots showing the levels of HER2 and phospho-HER2 in untreated cells and cells treated with lapatinib. Cells were treated with or without lapatinib (1 μM) for 24 hours in the presence of the caspase inhibitor z-VAD (50 μM). The cells were harvested and cell lysates were immunoblotted using antibodies against phospho-HER2 (Y877) and total HER2. FIG. 3C is an immunoblot for phospho-AKT (T308) and total AKT. BT474 and rBT474 cells were treated with 1 μM lapatinib in the presence of 50 μM z-VAD. At the indicated time points, the cells were harvested and immunoblotted. FIG. 3D is an immunoblot for phospho-Erl1/2(T202/Y204) and total Erk1/2. BT474 and rBT474 cells were treated with 1 μM lapatinib in the presence of 50 μM z-VAD. At the indicated time points, the cells were harvested and immunoblotted. […] FIG. 3F is an autoradiograph showing the ^35[S] radioactivity in lysates containing ^35[S]-Mcl-1 at the indicated time points. ^35[S]-labeled Mcl-1 protein was incubated in cell-free lysates prepared from BT474 and rBT474 cells (top) or SKBR3 and rSKBR3 cells (bottom). […] FLAG-Mcl-1 was retrieved by immunoprecipitation using anti-flag agarose, and Mcl-1 ubiquitylation was analyzed by immunoblotting for HA (*non-specific band, **IgG heavy chain). […]

COc1ccc(C2=N[C@@H](c3ccc(Cl)cc3)[C@@H](c3ccc(Cl)cc3)N2C(=O)N2CCNC(=O)C2)c(OC(C)C)c1 [Nutlin-3]
rBT474-derived tumor growth (rBT474 xenografts): Neither lapatinib nor Nutlin-3 inhibited
AU565-derived tumor growth (AU565-derived tumor): moderate tumor inhibitory effects
growth of BT474-derived tumors (BT474 xenografts): only modestly inhibited
rAU565-derived tumor growth (rAU565-derived tumor): moderate tumor inhibitory effects

COc1ccc(C2=N[C@@H](c3ccc(Cl)cc3)[C@@H](c3ccc(Cl)cc3)N2C(=O)N2CCNC(=O)C2)c(OC(C)C)c1 [Nutlin-3a]
lapatinib-induced upregulation of Mcl-1 (Mcl-1 [1]): suppressed
lapatinib-induced upregulation of PP5 (PP5): suppressed
lapatinib-induced degradation of Huwe1 (Huwe1): prevented
CAS degradation (CAS): significantly inhibited

ubiquitin aldehyde
degradation of 35[S]-Mcl-1 (Mcl-1 [2]): did not prevent the failure to degrade
